Molecular target: human PDE4D catalytic domain (Homo sapiens (Human), UniProt Q08499)
Test: PDE4 Assay (TR-FRET, FAM-cAMP cleavage)
Type: biochemical
Conditions: human PDE4D catalytic domain (UniProt Q08499 [S380-L740]); 50% inhibition of substrate cleavage; read-out: PDE4 IC50 range
Summary of the method: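 PDE4D catalytic domain (S380-L740) incubated briefly with unlabelled cAMP plus FAM-cAMP and titrated compound. Reaction stopped with binding buffer holding metal-ion nanoparticles that bind AMP phospho groups and Tb donor, and AMP formation read by TR-FRET. IC50 versus controls, reported as ranges (nM).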

Sequence of human PDE4D catalytic domain (Q08499 380-740): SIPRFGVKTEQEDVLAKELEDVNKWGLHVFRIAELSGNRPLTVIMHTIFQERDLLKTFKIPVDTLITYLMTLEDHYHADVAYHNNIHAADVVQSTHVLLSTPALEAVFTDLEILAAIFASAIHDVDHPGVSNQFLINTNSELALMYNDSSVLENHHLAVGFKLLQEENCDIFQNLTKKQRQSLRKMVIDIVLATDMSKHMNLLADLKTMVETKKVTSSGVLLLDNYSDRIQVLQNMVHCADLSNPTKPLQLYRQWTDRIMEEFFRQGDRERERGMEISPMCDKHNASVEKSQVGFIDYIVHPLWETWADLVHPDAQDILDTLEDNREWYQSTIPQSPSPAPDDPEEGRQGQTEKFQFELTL

Compound | IC50
CCn1nc(C[C@@H](C)COC(=O)c2cccc(C(=O)N3CCCC3)c2)c2c1C(=O)NCC1(CCOCC1)C2 [Example 181, [(2R)-3-(1-ethyl-8-oxo-spiro[6,7-dihydro-4H-pyrazolo[3,4-c]azepine-5,4′-tetrahydropyran]-3-yl)-2-methyl-propyl] 3-(pyrrolidine-1-carbonyl)benzoate] | < 100 nM
CCn1nc(C[C@@H](C)COC(=O)c2cccc(C(=O)N3CCCCC3)c2)c2c1C(=O)NCC1(CCOCC1)C2 [Example 182, [(2R)-3-(1-ethyl-8-oxo-spiro[6,7-dihydro-4H-pyrazolo[3,4-c]azepine-5,4′-tetrahydropyran]-3-yl)-2-methyl-propyl] 3-(piperidine-1-carbonyl)benzoate] | < 100 nM
CCn1nc(C[C@@H](C)COC(=O)c2cccc(C(=O)N3CCOCC3)c2)c2c1C(=O)NCC1(CCOCC1)C2 [Example 183, [(2R)-3-(1-ethyl-8-oxo-spiro[6,7-dihydro-4H-pyrazolo[3,4-c]azepine-5,4′-tetrahydropyran]-3-yl)-2-methyl-propyl] 3-(morpholine-4-carbonyl)benzoate] | < 100 nM
CCn1nc(C[C@@H](C)COC(=O)c2cccc(C(=O)N3CCN(C)CC3)c2)c2c1C(=O)NCC1(CCOCC1)C2 [Example 184, [(2R)-3-(1-ethyl-8-oxo-spiro[6,7-dihydro-4H-pyrazolo[3,4-c]azepine-5,4′-tetrahydropyran]-3-yl)-2-methyl-propyl] 3-(4-methylpiperazine-1-carbonyl)benzoate] | < 100 nM
CCn1nc(C[C@@H](C)COC(=O)c2cccc(C(=O)N3CCN(C(C)=O)CC3)c2)c2c1C(=O)NCC1(CCOCC1)C2 [Example 185, [(2R)-3-(1-ethyl-8-oxo-spiro[6,7-dihydro-4H-pyrazolo[3,4-c]azepine-5,4′-tetrahydropyran]-3-yl)-2-methyl-propyl] 3-(4-acetylpiperazine-1-carbonyl)benzoate] | < 100 nM
CCn1nc(CC(C)(C)COC(=O)CCOC)c2c1C(=O)NCC1(CCOCC1)C2 [Example 186, [3-(1-ethyl-8-oxo-spiro[6,7-dihydro-4H-pyrazolo[3,4-c]azepine-5,4′-tetrahydropyran]-3-yl)-2,2-dimethyl-propyl] 3-methoxypropanoate] | < 100 nM
CCn1nc(CC(C)(C)COC(=O)CCSC)c2c1C(=O)NCC1(CCOCC1)C2 [Example 187, [3-(1-ethyl-8-oxo-spiro[6,7-dihydro-4H-pyrazolo[3,4-c]azepine-5,4′-tetrahydropyran]-3-yl)-2,2-dimethyl-propyl] 3-methylsulfanylpropanoate] | < 100 nM
CCn1nc(CC(C)(C)COC(=O)c2ccc(C)cc2)c2c1C(=O)NCC1(CCOCC1)C2 [Example 188, [3-(1-ethyl-8-oxo-spiro[6,7-dihydro-4H-pyrazolo[3,4-c]azepine-5,4′-tetrahydropyran]-3-yl)-2,2-dimethyl-propyl] 4-methylbenzoate] | < 100 nM
CCn1nc(CC(C)(C)COC(=O)c2ccccc2C)c2c1C(=O)NCC1(CCOCC1)C2 [Example 189, [3-(1-ethyl-8-oxo-spiro[6,7-dihydro-4H-pyrazolo[3,4-c]azepine-5,4′-tetrahydropyran]-3-yl)-2,2-dimethyl-propyl] 2-methylbenzoate] | < 100 nM
CCn1nc(CC(C)(C)COC(=O)c2cccc(C)c2)c2c1C(=O)NCC1(CCOCC1)C2 [Example 190, [3-(1-ethyl-8-oxo-spiro[6,7-dihydro-4H-pyrazolo[3,4-c]azepine-5,4′-tetrahydropyran]-3-yl)-2,2-dimethyl-propyl] 3-methylbenzoate] | < 100 nM
CCn1nc(CC(C)(C)COC(=O)c2cccc(F)c2)c2c1C(=O)NCC1(CCOCC1)C2 [Example 191, [3-(1-ethyl-8-oxo-spiro[6,7-dihydro-4H-pyrazolo[3,4-c]azepine-5,4′-tetrahydropyran]-3-yl)-2,2-dimethyl-propyl] 3-fluorobenzoate] | < 100 nM
CCn1nc(CC(C)(C)COC(=O)c2ccc(F)cc2)c2c1C(=O)NCC1(CCOCC1)C2 [Example 192, [3-(1-ethyl-8-oxo-spiro[6,7-dihydro-4H-pyrazolo[3,4-c]azepine-5,4′-tetrahydropyran]-3-yl)-2,2-dimethyl-propyl] 4-fluorobenzoate] | < 100 nM
CCn1nc(CC(C)(C)COC(=O)c2ccccc2F)c2c1C(=O)NCC1(CCOCC1)C2 [Example 193, [3-(1-ethyl-8-oxo-spiro[6,7-dihydro-4H-pyrazolo[3,4-c]azepine-5,4′-tetrahydropyran]-3-yl)-2,2-dimethyl-propyl] 2-fluorobenzoate] | < 100 nM
CCn1nc(CC(C)(C)COC(=O)[C@H]2CC[C@H](O)CC2)c2c1C(=O)NCC1(CCOCC1)C2 [Example 194, [3-(1-ethyl-8-oxo-spiro[6,7-dihydro-4H-pyrazolo[3,4-c]azepine-5,4′-tetrahydropyran]-3-yl)-2,2-dimethyl-propyl] 4-hydroxycyclohexane-carboxylate] | < 100 nM
CCc1ccc(C(=O)OCC(C)(C)Cc2nn(CC)c3c2CC2(CCOCC2)CNC3=O)cc1 [Example 195, [3-(1-ethyl-8-oxo-spiro[6,7-dihydro-4H-pyrazolo[3,4-c]azepine-5,4′-tetrahydropyran]-3-yl)-2,2-dimethyl-propyl] 4-ethylbenzoate] | < 100 nM
CCn1nc(CC(C)(C)COC(=O)c2cccc(OC)c2)c2c1C(=O)NCC1(CCOCC1)C2 [Example 196, [3-(1-ethyl-8-oxo-spiro[6,7-dihydro-4H-pyrazolo[3,4-c]azepine-5,4′-tetrahydropyran]-3-yl)-2,2-dimethyl-propyl] 3-methoxybenzoate] | < 100 nM
CCn1nc(CC(C)(C)COC(=O)c2ccc(OC)cc2)c2c1C(=O)NCC1(CCOCC1)C2 [Example 197, [3-(1-ethyl-8-oxo-spiro[6,7-dihydro-4H-pyrazolo[3,4-c]azepine-5,4′-tetrahydropyran]-3-yl)-2,2-dimethyl-propyl] 4-methoxybenzoate] | < 100 nM
CCn1nc(CC(C)(C)COC(=O)c2ccccc2OC)c2c1C(=O)NCC1(CCOCC1)C2 [Example 198, [3-(1-ethyl-8-oxo-spiro[6,7-dihydro-4H-pyrazolo[3,4-c]azepine-5,4′-tetrahydropyran]-3-yl)-2,2-dimethyl-propyl] 2-methoxybenzoate] | < 100 nM
CCn1nc(CC(C)(C)COC(=O)CCS(C)(=O)=O)c2c1C(=O)NCC1(CCOCC1)C2 [Example 199, [3-(1-ethyl-8-oxo-spiro[6,7-dihydro-4H-pyrazolo[3,4-c]azepine-5,4′-tetrahydropyran]-3-yl)-2,2-dimethyl-propyl] 3-methylsulfonylpropanoate] | < 100 nM
CCn1nc(CC(C)(C)COC(=O)c2ccc(C(C)=O)cc2)c2c1C(=O)NCC1(CCOCC1)C2 [Example 200, [3-(1-ethyl-8-oxo-spiro[6,7-dihydro-4H-pyrazolo[3,4-c]azepine-5,4′-tetrahydropyran]-3-yl)-2,2-dimethyl-propyl] 4-acetylbenzoate] | < 100 nM
CCn1nc(CC(C)(C)COC(=O)c2cccc(C(C)=O)c2)c2c1C(=O)NCC1(CCOCC1)C2 [Example 201, [3-(1-ethyl-8-oxo-spiro[6,7-dihydro-4H-pyrazolo[3,4-c]azepine-5,4′-tetrahydropyran]-3-yl)-2,2-dimethyl-propyl] 3-acetylbenzoate] | < 100 nM
CCn1nc(CC(C)(C)COC(=O)c2ccc(S(C)(=O)=O)cc2)c2c1C(=O)NCC1(CCOCC1)C2 [Example 202, [3-(1-ethyl-8-oxo-spiro[6,7-dihydro-4H-pyrazolo[3,4-c]azepine-5,4′-tetrahydropyran]-3-yl)-2,2-dimethyl-propyl] 4-methylsulfonylbenzoate] | < 100 nM
CCn1nc(CC(C)(C)COC(=O)c2ccc(S(=O)(=O)CC)cc2)c2c1C(=O)NCC1(CCOCC1)C2 [Example 203, [3-(1-ethyl-8-oxo-spiro[6,7-dihydro-4H-pyrazolo[3,4-c]azepine-5,4′-tetrahydropyran]-3-yl)-2,2-dimethyl-propyl] 4-ethylsulfonylbenzoate] | < 100 nM
CCn1nc(CC(C)(C)COC(=O)c2cccc(S(=O)(=O)CC)c2)c2c1C(=O)NCC1(CCOCC1)C2 [Example 204, [3-(1-ethyl-8-oxo-spiro[6,7-dihydro-4H-pyrazolo[3,4-c]azepine-5,4′-tetrahydropyran]-3-yl)-2,2-dimethyl-propyl] 3-ethylsulfonylbenzoate] | < 100 nM
CCn1nc(CC(C)(C)COC(=O)c2ccc(S(=O)(=O)NC)cc2)c2c1C(=O)NCC1(CCOCC1)C2 [Example 205, [3-(1-ethyl-8-oxo-spiro[6,7-dihydro-4H-pyrazolo[3,4-c]azepine-5,4′-tetrahydropyran]-3-yl)-2,2-dimethyl-propyl] 4-(methylsulfamoyl)benzoate] | < 100 nM
CCn1nc(CC(C)(C)COC(=O)c2cccc(S(=O)(=O)C(C)C)c2)c2c1C(=O)NCC1(CCOCC1)C2 [Example 206, [3-(1-ethyl-8-oxo-spiro[6,7-dihydro-4H-pyrazolo[3,4-c]azepine-5,4′-tetrahydropyran]-3-yl)-2,2-dimethyl-propyl] 3-isopropylsulfonylbenzoate] | < 100 nM
CCn1nc(CC(C)(C)COC(=O)c2ccc(S(=O)(=O)C(C)C)cc2)c2c1C(=O)NCC1(CCOCC1)C2 [Example 207, [3-(1-ethyl-8-oxo-spiro[6,7-dihydro-4H-pyrazolo[3,4-c]azepine-5,4′-tetrahydropyran]-3-yl)-2,2-dimethyl-propyl] 4-isopropylsulfonylbenzoate] | < 100 nM
CCn1nc(CC(C)(C)COC(=O)c2ccc(S(=O)(=O)N(C)C)cc2)c2c1C(=O)NCC1(CCOCC1)C2 [Example 208, [3-(1-ethyl-8-oxo-spiro-[6,7-dihydro-4H-pyrazolo-[3,4-c]azepine-5,4′-tetra-hydropyran]-3-yl)-2,2-dimethyl-propyl] 4-(di-methylsulfamoyl)benzoate] | < 100 nM
